Measured values published in patent US12570957B2, “Isolated naive pluripotent stem cells and methods of generating same” (Yeda Research and Development Co. Ltd., priority 2013, dated 2026).

Experiments:
Experiment in all cases: Pluripotency maintenance after supplementation of inhibitors or growth factors
[1] = tested on: naive hESCs/hiPSCs; assay type: cell-based; settings: naive human cells in WIS-NHSM
Description: (§1) Shown are histograms depicting colony formation of pluripotent cell lines in various media. Cell populations were equally divided and plated on gelatin/vitronectin coated plates in the indicated growth medium in which these cell lines are normally maintained (mouse naive cells in a medium containing 2i/LIF, naive hESCs/iPSCs in a WIS-NHSM medium, mouse EpiSCs and human primed ESCS/iPSCs in a KSR/bFGF/TGFβmedium). 36 hours later the wells were supplemented with the indicated inhibitors or growth factors. After 14 days (2 passages), wells were analyzed for Oct4-GFP pluripotency marker expression by FACS, to determine the relative percentage of pluripotent colonies. Pluripotent cell frequency was normalized to an internal control, as indicated by “Growth medium” only on the far left column (For naive cells growth medium was WIS-NHSM, and for primed cells was conventional KSR/bFGF/TGFβcontaining medium as specified in methods). […]
(§2) FIGS. 108A-108C—Signaling and functional characteristics of human naive pluripotency. […] After 14 days (2 passages), wells were analyzed by OCT4 immunostaining of direct detection of OCT4-GFP pluripotency reporter expression, to determine the relative percentage of undifferentiated pluripotent cells. […] After 20 days, colonies positive for OCT4 pluripotency markers were counted and normalized to colonies from cells electroporated with empty vector. […]

[2] = tested on: primed hESCs/hiPSCs; assay type: cell-based; settings: primed human cells
Description: as §1, §2

[3] = tested on: naive mESCs; assay type: cell-based, mouse; settings: mESCs in 2i/LIF
Description: as §1, §2

CC(C)(C)c1nc2c3ccc(F)cc3c3c(=O)[nH]ccc3c2[nH]1 [JAKi]
response of pluripotent state [1]: differentiated
response of pluripotent state [2]: resistant
response of pluripotent state [3]: readily differentiate
